Tests used:
[1] = molecular target: T1, alcohol dehydrogenase from horse liver (HLADH) (Equus caballus, UniProt P00327); assay: HLADH relative velocity (enantioselectivity) and Michaelis-Menten kinetics with 1,2-propanediol; format: biochemical; details: for Km / Vmax: HLADH; for Km: 7.2 mM NAD+, pH 8.8, 25° C.; for Vmax: 0.049 U
T1 construct: purchased; host or cells: equine liver
Description: 1. HLADH: The enantioselectivity of […] was estimated from the ratios of the initial velocities of (R)— vs. (S)-1,2-propanediol at fixed concentrations between 4.0 and 100 mM at 25° C. Each velocity measurement was made in duplicate. The assay cuvette contained the following: 7.2 mM NAD+ (33 μL from a 220 mM stock), 0.049 U of HLADH, and various concentrations of either the (R)— or (S)-enantiomer of 1,2-propanediol. In all cases, the final volume was adjusted to 1 mL using 50 mM sodium pyrophosphate buffer, pH 8.8.
(§1) Indeed, this was confirmed by the determination of Km's for each antipode of 1,2-propanediol for each enzyme. For each antipodal diol, the same data as were used to survey dehydrogenase enantioselectivity, as a function of diol concentration, were plotted in Michaelis-Menten fashion, as v0 vs. [S] (FIGS. 3 and 4). For each dehydrogenase, the data curve for (R)-1,2-propanediol is shown by -▪-, and those for the (S)-enantiomer by -●-. In all four cases, the data were processed by […], least squares fitting to a hyperbolic function. The resulting curve fits and best fit hyperbolic equations are presented above.

[2] = molecular target: T2, alcohol dehydrogenase from Thermoanaerobium brockii (TBADH) (Thermoanaerobacter brockii, UniProt P14941); assay: TBADH relative velocity (enantioselectivity) and Michaelis-Menten kinetics with 1,2-propanediol; format: biochemical; details: for Km / Vmax: TBADH; for Km: 2.2 mM NADP+, pH 8.8, 25° C.; for Vmax: 0.113 U
T2 construct: purchased
T2 sequence (P14941 1-352): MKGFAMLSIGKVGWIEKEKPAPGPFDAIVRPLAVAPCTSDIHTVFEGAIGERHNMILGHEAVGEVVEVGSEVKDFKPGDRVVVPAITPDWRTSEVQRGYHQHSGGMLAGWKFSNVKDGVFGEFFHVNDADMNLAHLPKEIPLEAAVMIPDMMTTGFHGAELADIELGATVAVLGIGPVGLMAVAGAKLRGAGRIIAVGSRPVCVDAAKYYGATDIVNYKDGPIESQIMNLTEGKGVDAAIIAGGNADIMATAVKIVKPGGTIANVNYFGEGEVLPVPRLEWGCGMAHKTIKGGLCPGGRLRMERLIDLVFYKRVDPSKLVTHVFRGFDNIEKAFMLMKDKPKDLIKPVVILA
Description: 2. TBADH: The enantioselectivity of […] was estimated from the ratios of the initial velocities of (R)— vs. (S)-1,2-propanediol at fixed concentrations between 3.0 and 80 mM at 25° C. Each velocity measurement was performed in triplicate. The assay cuvette contained the following: 2.2 mM NADP+ (10 μL from a 220 mM stock), 0.113 U of TBADH, and various concentrations of either (R) or (S)-enantiomer of 1,2-propanediol. In all cases, the final volume was adjusted to 1 mL using 50 mM sodium pyrophosphate buffer, pH 8.8.
as §1

[3] = Double cuvette-ISES (in situ enzymatic screening) of Co(III)-salen mediated HKR of (±)-propylene oxide; details: bilayer of pH 8.6 buffer over 7.2 M epoxide in CHCl3, 0.25 mol % catalyst, 15-35 min; + = (S), − = (R)
Description: Aqueous reporting layers. containing TBADH/NADP+ (cuvette 1) and HLADH/NAD+ (cuvette 2), respectively, are then added. The increase in absorbance at 340 nm can be followed for several such sets in parallel by UV-vis spectrophotometry. The kinetic data are then used to make the double-cuvette ISES predictions.
A general procedure for double cuvette-ISES to estimate both enantioselectivities and relative rates for an array of catalysts being screened in parallel is presented below. The hydrolytic kinetic resolution (HKR) of (±) propylene oxide was chosen as model reaction.
Typically, quartz cuvettes with one cm light paths and with nominal one mL volumes were used. For each catalyst, a two cuvette screen was performed, with cuvette A containing HLADH, as (S)-propanediol-selective reporting enzyme, and cuvette B containing TBADH, as a (R)-propanediol-selective reporting enzyme. For each cuvette, the final volume was 800 μL (300 μL of organic layer; 500 μL of aqueous layer).
Both cuvettes A and B had the following composition: 150 μL (2.15 mmol) of (±)-propylene oxide (7.2 M in organic layer), 150 μL of CHCl3 and 0.25 mol % Co(III)-salen catalyst. The total organic layer volume was maintained as 300 μL in all catalyst screens.
(i) Cuvette A: 0.35 U HLADH (17.6 μL from a stock solution (0.02U/μL)), 7.2 mM β-NAD+(16.5 μL from a 220 mM stock) and 465.8 μL of 50 mM sodium pyrophosphate buffer, pH 8.8. The final pH was 8.6.
(ii) Cuvette B: 0.35 U TBADH (15.8 μL from a stock solution (0.022U/μL)) of, 2.2 mM β-NADP+ (5 μL from a 220 mM stock) and 479.5 μL of 50 mM sodium pyrophosphate buffer, pH 8.8. The final pH was 8.6. The total volume of the aqueous layer was maintained as 500 μL in both cuvettes in all ISES experiments.
C. Step by Step Protocol: A catalyst stock solution (22 μmol of catalyst in 620 μL CHCl3) was made up in a 1.5 ml microcentrifuge tube, and stored on ice, along with a stock of (±)-propylene oxide, in a separate tube. The organic layers were prepared by briefly vortexing 150 μL (5.4 μmol, 0.25 mol %) of the catalyst stock in CHCl3 with 150 μL (2.15 mmol) of (±)-propylene oxide in iced microcentrifuge tubes. These were loaded into 1 mL quartz cuvettes using precooled (refrigerator), disposable 1 mL syringes. The aqueous layers were then layered on top of the organic layers, by syringe, down the walls of the cuvette.

[4] = HKR of (±)-propylene oxide under standard neat 'Jacobsen conditions' (NMR conversion, chiral HPLC ee); details: for NMR conv. (time): 3 h; for NMR conv. (time) / % ee (HPLC): loading 0.25 mol %; for % ee of the 1,2-propanediol product, as observed by chiral HPLC (lower number): neat propylene oxide, 0.55 equiv. H2O, 0.25 mol % catalyst, 3 h reaction time
Description: Salens in the fully synthetic, 42 member focused library that led to catalysts with appreciable activity, as indicated by double cuvette-ISES, were also evaluated ‘outside of the cuvette,’ under conditions more typically employed in HKR reactions. Specifically, these Co(III)-salen catalysts were evaluated in the HKR of (±)-propylene oxide, under neat conditions, similar to those described by Jacobsen and coworkers. Reactions were arbitrarily stopped after 3 hours, to obtain the enantiopurity of the 1,2-propanediol product at relatively early reaction times, for comparison with ISES predictions.
A typical procedure follows: To the Co(III)-salen catalyst derived from 7e (5.4 mg, 5.4 μmol, 0.25 mol %) and (±)-propylene oxide (125 mg, 2.15 mmol) at 0° C., was added water (21 μL, 1.18 mmol, 0.55 equiv.). The reaction mixture was securely capped, and allowed to warm to room temperature and stirred, most commonly for a total of 3 hours. Percent conversion at 3 hours was evaluated by 1H NMR of an aliquot (cooled to 0° C. for the transfer), in CDCl3. In most of these cases, the conversion was low enough after 3 hours, that the unreacted epoxide (bp 32° C.) was of relatively low ee, and was therefore removed by evaporation under aspirator vacuum. When the conversion was less than 5% by NMR after 3 hours, reactions were continued for longer times.
Upon termination of the reaction, the diol product was isolated by Kugelrohr distillation (˜120° C.-oven temp; 0.1 torr). To determine ee, the isolated diol was derivatized using p-bromobenzoyl imidazole (2.2 equiv.) in THF in the presence of NaH (4 equiv.) at room temperature for 5 min. The bis(p-bromobenzoate) esters obtained following sequential washes with 1 N HCl and saturated sodium bicarbonate, were of sufficient purity to be used directly for chiral HPLC analysis (Chiralcel OD, 99% […]). [drawing 23] [drawing 24] [drawing 25] [drawing 26] [drawing 27]

[5] = [total 1,2-propanediol] in aqueous ISES layer by 1H NMR; details: for [diol] (mM) @ 15 min: aqueous ISES layer, 1H NMR, t = 15 min; for Norm.: normalized to the catalyst derived from salen 3b (rate 1.0)
Description: The concentration of 1,2-propanediol in the aqueous layer was estimated under typical ISES conditions using 1H NMR spectroscopy. The bilayer was prepared as usual for double cuvette-ISES (Section V), but for the substitution of D2O for H2O in the buffer, and the elimination of the dehydrogenase enzymes. After 15 min, the aqueous layer (300 μL of 500 μL total) was withdrawn and mixed with a fresh solution of imidazole of known concentration (also 300 μL in D2O), as an internal concentration standard. Accumulation of the 1H NMR spectrum, followed by integration and quantitation, provided an experimental measure of [total diol] in the aqueous reporting layer at t=15 minutes for the catalyst under investigation. The observed diol concentrations for ten catalysts examined in this way are collected in Table S6, below. These have been normalized to the value for the catalyst derived from salen 3b (arbitrarily assigned a rate of 1.0).

[6] = reaction stopped at the time given (mostly 3 h), + = (S), − = (R)

T1 sequence (P00327 whole entry): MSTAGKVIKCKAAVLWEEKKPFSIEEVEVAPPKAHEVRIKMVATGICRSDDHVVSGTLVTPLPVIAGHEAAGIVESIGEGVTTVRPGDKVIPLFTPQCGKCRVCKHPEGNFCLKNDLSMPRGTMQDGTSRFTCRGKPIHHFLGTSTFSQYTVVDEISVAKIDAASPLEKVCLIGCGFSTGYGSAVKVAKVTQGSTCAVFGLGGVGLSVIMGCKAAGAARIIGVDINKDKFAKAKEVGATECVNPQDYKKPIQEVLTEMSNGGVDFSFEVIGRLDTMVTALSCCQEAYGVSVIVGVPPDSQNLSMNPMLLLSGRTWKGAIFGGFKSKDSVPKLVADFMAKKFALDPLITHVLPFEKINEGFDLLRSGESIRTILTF

Molecule: CC(O)CO (stereo not drawn) [1,2-Propanediol]
- vS/vR of HLADH ([1]; 1,2-propanediol conc. 4 mM, 25° C.): 4.0
- vS/vR of HLADH ([1]; 1,2-propanediol conc. 8 mM): 3.6
- vS/vR of HLADH ([1]; 1,2-propanediol conc. 12 mM): 2.8
- vS/vR of HLADH ([1]; 1,2-propanediol conc. 16 mM): 2.4
- vS/vR of HLADH ([1]; 1,2-propanediol conc. 20 mM): 2.7
- vS/vR of HLADH ([1]; 1,2-propanediol conc. 30 mM): 2.8
- vS/vR of HLADH ([1]; 1,2-propanediol conc. 40 mM): 3.0
- vS/vR of HLADH ([1]; 1,2-propanediol conc. 50 mM): 2.7
- vS/vR of HLADH ([1]; 1,2-propanediol conc. 100 mM): 2.6
- vR/vS of TBADH ([2]; 1,2-propanediol conc. 3 mM, 25° C.): 10.8
- vR/vS of TBADH ([2]; 1,2-propanediol conc. 6 mM): 8.9
- vR/vS of TBADH ([2]; 1,2-propanediol conc. 10 mM): 9.9
- vR/vS of TBADH ([2]; 1,2-propanediol conc. 20 mM): 10.6
- vR/vS of TBADH ([2]; 1,2-propanediol conc. 30 mM): 9.1
- vR/vS of TBADH ([2]; 1,2-propanediol conc. 40 mM): 8.4
- vR/vS of TBADH ([2]; 1,2-propanediol conc. 50 mM): 9.0
- vR/vS of TBADH ([2]; 1,2-propanediol conc. 60 mM): 9.1
- vR/vS of TBADH ([2]; 1,2-propanediol conc. 80 mM): 8.6

Molecule: CC(C)(C)c1cccc(C=NC[C@H](Cc2cccc3ccccc23)N=Cc2cccc(C(C)(C)C)c2O)c1O [Salen 4b, N,N′-Bis(3′-tert-butylsalicylidene)-(1S)-(α-naphthylmethyl)-1,2-ethylenediamine]
- % ee of the 1,2-propanediol product, as predicted by double-cuvette ISES (upper number) [3]: +91 % ee
- NMR conv. (time) [4]: 50 (3 h) %
- % ee (HPLC) [4, 6]: +59 (S) % ee
- % ee of the 1,2-propanediol product, as observed by chiral HPLC (lower number) ([4]; + = (S), − = (R)): +59 % ee
- [diol] (mM) @ 15 min [5]: 98 mM
- Norm. [5]: 1.02

Molecule: N,N′-Bis(1′-hydroxy-2′-naphthylidene)-[1R-(1α,2α,5α)]-2-amino-7,7-dimethyl-2-bicyclo[3.3.1]heptane-ethanamine [Salen 1d]
- % ee of the 1,2-propanediol product, as predicted by double-cuvette ISES (upper number) [3]: +75 % ee
- % ee (HPLC) ([4]; @1 h): +81@1 h, % ee
- % ee (HPLC) ([4]; @3 h): +67@3 h (S) % ee
- % ee of the 1,2-propanediol product, as observed by chiral HPLC (lower number) ([4]; + = (S), − = (R)): +81 % ee
- [diol] (mM) @ 15 min [5]: 91 mM
- Norm. [5]: 0.95

Molecule: Oc1c(C=NC[C@H](Cc2ccc3ccccc3c2)N=Cc2ccc3ccccc3c2O)ccc2ccccc12 [Salen 5d, N,N′-Bis(1′-hydroxy-2′-naphthylidene)-(1S)-(β-naphthylmethyl)-1,2-ethylenediamine]
- % ee of the 1,2-propanediol product, as predicted by double-cuvette ISES (upper number) [3]: +9 % ee
- NMR conv. (time) [4]: 10 (3 h) %
- % ee (HPLC) [4, 6]: +11 (S) % ee
- % ee of the 1,2-propanediol product, as observed by chiral HPLC (lower number) ([4]; + = (S), − = (R)): +11 % ee
- [diol] (mM) @ 15 min [5]: 54 mM
- Norm. [5]: 0.56

Molecule: CC(C)(C)c1cc(C=NC[C@@H](N=Cc2cc(C(C)(C)C)cc(C(C)(C)C)c2O)c2ccccc2)c(O)c(C(C)(C)C)c1 [Salen 2a, N,N′-Bis(3′,5′-di-tert-butylsalicylidene)-(1S)-phenyl-1,2-ethylenediamine]
- % ee of the 1,2-propanediol product, as predicted by double-cuvette ISES (upper number) [3]: −97 % ee
- NMR conv. (time) [4]: 17 (3 h) %
- % ee (HPLC) [4, 6]: −93 (R) % ee
- % ee of the 1,2-propanediol product, as observed by chiral HPLC (lower number) ([4]; + = (S), − = (R)): −93 % ee
- [diol] (mM) @ 15 min [5]: 27.5 mM
- Norm. [5]: 0.29

Molecule: C[C@H](O)CO [(S)-1,2-propanediol]
- Km [1]: 16 ± 1 mM
- Vmax [1]: 819±20 mAbs min−1
- Km [2]: 23 ± 4 mM
- Vmax [2]: 60±4 mAbs min−1

Molecule: C[C@@H](O)CO [(R)-1,2-propanediol]
- Km [1]: 25 ± 2 mM
- Vmax [1]: 355±9 mAbs min−1
- enantiomeric preference of TBADH [2]: significant preference
- Km [2]: 17 ± 2 mM
- Vmax [2]: 487±18 mAbs min−1

Molecule: CC(C)(C)c1cccc(C=NC[C@@H](N=Cc2cccc(C(C)(C)C)c2O)c2ccccc2)c1O [Salen 2b, N,N′-Bis(3′-tert-butylsalicylidene)-(1S)-phenyl-1,2-ethylenediamine]
- % ee of the 1,2-propanediol product, as predicted by double-cuvette ISES (upper number) [3]: −73 % ee
- NMR conv. (time) [4]: 26 (3 h) %
- % ee (HPLC) [4, 6]: −75 (R) % ee
- % ee of the 1,2-propanediol product, as observed by chiral HPLC (lower number) ([4]; + = (S), − = (R)): −75 % ee
- [diol] (mM) @ 15 min [5]: 22 mM
- Norm. [5]: 0.23
